{"source": "patent US20110077294A1", "about": "“R-(-) / S-(+)-7-[3-N SUBSTITUTED AMINO-2 HYDROXYPROPOXY] FLAVONES” (priority 2006, published 2011)", "type_in_all_cases": "in vivo", "conditions_in_all_cases": "25 mg/kg", "key": {"C57BL/KsBom-db/db mice [1]": {"system": "C57BL/KsBom-db/db mice", "assay": "Oral glucose tolerance test (OGTT) on day 10 in db/db mice", "description": "(§1) C57BL/KsBom-db/db mice (12-18 weeks old), weighing around 35+g bred in the animal house of CDRI, Lucknow, were used in the present experiments. The mice were housed in groups of 3 to 5 (same sex) in a room controlled for temperature (23±2.0 ° C.) and 12/12 hours light/dark cycle (lights on at 6.00 am). Body weight of each animal was measured daily from day 1 to day 10 of the experiment. All animals had free access to fresh water and normal pellet diet except on the day of the postprandial protocol (day 6) and during the overnight fast before the OGTT on day 10. The animals always had access to water during experimental periods. Blood glucose was checked every morning up till day 10. On day 10 an oral glucose tolerance test (OGTT) was performed after an overnight fasting. Blood glucose was measured at −30.0 min and test compounds were administered. The blood glucose was again measured at 0 min just post treatment and at this juncture glucose solution was given at a dose of 3 gm/kg to all the groups including the vehicle treated group. The blood glucose levels were checked at 30 min, 60 min, 90 min and 120 min post glucose administration. The data was analyzed for its significance on Prism software."}, "C57BL/KsBom-db/db mice [2]": {"system": "C57BL/KsBom-db/db mice", "assay": "Serum lipid profile of treated db/db mice (antidyslipidemic activity)", "description": "as §1"}, "C57BL/KsBom-db/db mice [3]": {"system": "C57BL/KsBom-db/db mice", "assay": "Blood glucose profile of db/db mice during daily treatment (antihyperglycemic activity)", "description": "as §1"}}, "data": [{"smiles": "CC(C)NCC(O)COc1ccc2c(=O)cc(-c3cc(O)cc(O)c3)oc2c1", "note": "(stereo in doubt) [S-002-857 (R), (R)-(−)-7-(2-Hydroxy-3-isopropylaminopropoxy)-3′,5′-dihydroxy flavone]", "values": [{"measurement": "oral glucose tolerance compared to sham treated (in words)", "setting": "C57BL/KsBom-db/db mice [1]", "value": "slight improvement in glucose tolerance"}, {"measurement": "Blood glucose profile, 0 min post glucose load", "setting": "C57BL/KsBom-db/db mice [1]; OGTT day 10, 0 min", "value": "16.3 ± 3.91", "unit": "mM"}, {"measurement": "Blood glucose % change compared to control, 0 min post glucose load", "setting": "C57BL/KsBom-db/db mice [1]; OGTT day 10, 0 min, vs sham", "value": "−7.05", "unit": "%"}, {"measurement": "Blood glucose profile, 30 min post glucose load", "setting": "C57BL/KsBom-db/db mice [1]; OGTT day 10, 30 min", "value": "27.6 ± 1.53", "unit": "mM"}, {"measurement": "Blood glucose % change compared to control, 30 min post glucose load", "setting": "C57BL/KsBom-db/db mice [1]; OGTT day 10, 30 min, vs sham", "value": "−16.7", "unit": "%"}, {"measurement": "Blood glucose profile, 60 min post glucose load", "setting": "C57BL/KsBom-db/db mice [1]; OGTT day 10, 60 min", "value": "24.4 ± 2.99", "unit": "mM"}, {"measurement": "Blood glucose % change compared to control, 60 min post glucose load", "setting": "C57BL/KsBom-db/db mice [1]; OGTT day 10, 60 min, vs sham", "value": "−10.0", "unit": "%"}, {"measurement": "Blood glucose profile, 90 min post glucose load", "setting": "C57BL/KsBom-db/db mice [1]; OGTT day 10, 90 min", "value": "20.6 ± 2.08", "unit": "mM"}, {"measurement": "Blood glucose % change compared to control, 90 min post glucose load", "setting": "C57BL/KsBom-db/db mice [1]; OGTT day 10, 90 min, vs sham", "value": "−7.39", "unit": "%"}, {"measurement": "Blood glucose profile, 120 min post glucose load", "setting": "C57BL/KsBom-db/db mice [1]; OGTT day 10, 120 min", "value": "16.0 ± 1.73", "unit": "mM"}, {"measurement": "Blood glucose % change compared to control, 120 min post glucose load", "setting": "C57BL/KsBom-db/db mice [1]; OGTT day 10, 120 min, vs sham", "value": "−14.3", "unit": "%"}, {"measurement": "Blood glucose profile, −30 min post glucose load", "setting": "C57BL/KsBom-db/db mice [1]; OGTT day 10, −30 min", "value": "11.8 ± 5.21", "unit": "mM"}, {"measurement": "Blood glucose % change compared to control, −30 min post glucose load", "setting": "C57BL/KsBom-db/db mice [1]; OGTT day 10, −30 min, vs sham", "value": "−8.31", "unit": "%"}, {"measurement": "Serum lipid profile: Cholesterol", "setting": "C57BL/KsBom-db/db mice [2]", "value": "160 ± 6.66", "unit": "mg/dL"}, {"measurement": "Serum lipid profile: HDL-Chol", "setting": "C57BL/KsBom-db/db mice [2]", "value": "59.0 ± 2.65", "unit": "mg/dL"}, {"measurement": "Serum lipid profile: Triglycerides", "setting": "C57BL/KsBom-db/db mice [2]", "value": "130 ± 3.06", "unit": "mg/dL"}, {"measurement": "serum cholesterol, triglycerides (lipid profile) compared to sham treated (in words)", "setting": "C57BL/KsBom-db/db mice [2]", "value": "no statistically significant difference"}, {"measurement": "Cholesterol % change compared to control", "setting": "C57BL/KsBom-db/db mice [2]; vs sham", "value": "−6.18", "unit": "%"}, {"measurement": "HDL-Chol % change compared to control", "setting": "C57BL/KsBom-db/db mice [2]; vs sham", "value": "+5.35%"}, {"measurement": "Triglycerides % change compared to control", "setting": "C57BL/KsBom-db/db mice [2]; vs sham", "value": "−1.72", "unit": "%"}, {"measurement": "blood glucose profile compared to sham treated (in words)", "setting": "C57BL/KsBom-db/db mice [3]", "value": "marginal fall in blood glucose profile"}, {"measurement": "Blood glucose, day 1 post treatment", "setting": "C57BL/KsBom-db/db mice [3]; day 1", "value": "12.5 ± 2.55", "unit": "mM"}, {"measurement": "Blood glucose % change compared to control, day 1", "setting": "C57BL/KsBom-db/db mice [3]; day 1, vs sham", "value": 0.0, "unit": "%"}, {"measurement": "Blood glucose, day 2 post treatment", "setting": "C57BL/KsBom-db/db mice [3]; day 2", "value": "12.3 ± 2.67", "unit": "mM"}, {"measurement": "Blood glucose % change compared to control, day 2", "setting": "C57BL/KsBom-db/db mice [3]; day 2, vs sham", "value": "−1.25", "unit": "%"}, {"measurement": "Blood glucose, day 3 post treatment", "setting": "C57BL/KsBom-db/db mice [3]; day 3", "value": "12.1 ± 2.02", "unit": "mM"}, {"measurement": "Blood glucose % change compared to control, day 3", "setting": "C57BL/KsBom-db/db mice [3]; day 3, vs sham", "value": "−3.28", "unit": "%"}, {"measurement": "Blood glucose, day 4 post treatment", "setting": "C57BL/KsBom-db/db mice [3]; day 4", "value": "11.5 ± 1.86", "unit": "mM"}, {"measurement": "Blood glucose % change compared to control, day 4", "setting": "C57BL/KsBom-db/db mice [3]; day 4, vs sham", "value": "−11.5", "unit": "%"}, {"measurement": "Blood glucose, day 5 post treatment", "setting": "C57BL/KsBom-db/db mice [3]; day 5", "value": "11.9 ± 2.74", "unit": "mM"}, {"measurement": "Blood glucose % change compared to control, day 5", "setting": "C57BL/KsBom-db/db mice [3]; day 5, vs sham", "value": "−13.1", "unit": "%"}, {"measurement": "Blood glucose, day 6 post treatment", "setting": "C57BL/KsBom-db/db mice [3]; day 6", "value": "11.6 ± 2.73", "unit": "mM"}, {"measurement": "Blood glucose % change compared to control, day 6", "setting": "C57BL/KsBom-db/db mice [3]; day 6, vs sham", "value": "−10.7", "unit": "%"}, {"measurement": "Blood glucose, day 7 post treatment", "setting": "C57BL/KsBom-db/db mice [3]; day 7", "value": "11.7 ± 1.78", "unit": "mM"}, {"measurement": "Blood glucose % change compared to control, day 7", "setting": "C57BL/KsBom-db/db mice [3]; day 7, vs sham", "value": "−22.0", "unit": "%"}, {"measurement": "Blood glucose, day 8 post treatment", "setting": "C57BL/KsBom-db/db mice [3]; day 8", "value": "11.0 ± 0.35", "unit": "mM"}, {"measurement": "Blood glucose % change compared to control, day 8", "setting": "C57BL/KsBom-db/db mice [3]; day 8, vs sham", "value": "−13.4", "unit": "%"}, {"measurement": "Blood glucose, day 9 post treatment", "setting": "C57BL/KsBom-db/db mice [3]; day 9", "value": "11.5 ± 1.00", "unit": "mM"}, {"measurement": "Blood glucose % change compared to control, day 9", "setting": "C57BL/KsBom-db/db mice [3]; day 9, vs sham", "value": "−14.0", "unit": "%"}, {"measurement": "Blood glucose, day 10 post treatment", "setting": "C57BL/KsBom-db/db mice [3]; day 10", "value": "11.9 ± 5.21", "unit": "mM"}, {"measurement": "Blood glucose % change compared to control, day 10", "setting": "C57BL/KsBom-db/db mice [3]; day 10, vs sham", "value": "−8.30", "unit": "%"}]}]}
